{"source": "paper PMC10692228", "about": "“A simple method for developing lysine targeted covalent protein reagents” (Nature Communications, 2023)", "key": {"[1]": {"target": "human 14-3-3σ with an N-terminal His6-tag (human) (UniProt P31947)", "sequence (P31947 whole entry)": "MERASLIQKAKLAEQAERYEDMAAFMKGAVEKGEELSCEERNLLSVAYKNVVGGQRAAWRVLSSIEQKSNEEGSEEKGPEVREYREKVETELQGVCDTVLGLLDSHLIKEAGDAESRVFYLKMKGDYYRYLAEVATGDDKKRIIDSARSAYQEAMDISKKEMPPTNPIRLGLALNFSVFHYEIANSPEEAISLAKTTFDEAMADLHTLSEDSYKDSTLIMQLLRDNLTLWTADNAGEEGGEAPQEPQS"}, "[2]": {"target": "human 14-3-3σ with an N-terminal His6-tag (human) (UniProt P31947)", "remark": "listed apart in the source"}, "[3]": {"target": "human 14-3-3σ with an N-terminal His6-tag (human) (UniProt P31947)", "remark": "listed apart in the source"}, "[4]": {"system": "14-3-3 proteins in A549 lysates", "assay": "Labeling of 14-3-3 proteins by BODIPY-modified peptides in A549 lysates (SDS-PAGE fluorescence, western blot)", "assay_type": "binding", "conditions": "BODIPY-labeled derivatives of the peptides; 1 µM (peptides 3, 8) or 0.25 µM (peptide 12), lysate […], 25 °C, 1 h or 22 h", "protocol": "A549 cells were obtained from biological services of the Weizmann Institute. For experiments in lysates, A549 cells were grown in DMEM + FBS. The cells were washed with PBS, scraped from the plate and centrifuged 200 × g for 5 min. […] Cells were incubated in the lysis buffer and centrifuged at 21,000 × g for 10 min at 4 °C. The protein concentration was estimated using BCA, and the lysate was diluted to 1.9 mg/ml in the lysis buffer. […] Then, 13.3 μl of 4X LDS samples buffer with 20 mM DTT was added and the samples were heated for 10 min at 70 °C. The samples were loaded on Bis-Tris gradient gels (4-20%, Genscript) and run using Tris-MOPS buffer at 60 mA/200 V. […] Images were processed and generated using ImageLab. […] Afterwards the gel was directly imaged in ChemiDoc. page 8: Supplementary Figure 7. Peptide binding selectivity in cell lysates and media. a) Raw images for the western blot experiment depicted in figure 5. Experiments was repeated 3 times. Top row: images for experiment done on A549 lysates. Bottom row: Images from extracellular medium. b) Direct gel imaging for experiment in which 1 μ[…] lysates at the indicated concentrations for 22 hours at 25°C. The same amount of lysate was loaded in each lane (28.5 μg). The intense fluorescence at the bottom comes from unbound peptide."}, "14-3-3σ": {"system": "14-3-3σ", "assay": "Covalent labeling of 14-3-3σ by peptides, intact protein LC/MS", "assay_type": "binding, human", "conditions": "5 µM peptide, 2 µM 14-3-3σ; for 14-3-3σ full peptide adduct (degree of labeling): 25 °C; for degree of labeling of 14-3-3σ: 37 C", "protocol": "The LC/MS runs for 14-3-3σ were performed on a Waters ACQUITY UPLC class H instrument, in positive ion mode using electrospray ionization. […] The column was held at 40 °C and the autosampler at 10 °C. […] The run flow was 0.4 mL/min. […] The MS data were collected on a Waters SQD2 detector with an m/z range of 2–3071.98 at a range of 900–1900 m/z. The desolvation temperature was 500 °C with a flow rate of 800 L/h. The voltages used were 1.00 kV for the capillary and 24 V for the cone. MassLynx version 4.2 was used to operate the LCMS and analyze the data. Raw data were processed using openLYNX and deconvoluted using MaxEnt with a range of 28,000: 34,000 Da and a resolution of 1 Da/channel. […] For analysis, 24 μl sample was mixed with 6 μl of 2.4% formic acid in water and then 10 μl were injected to intact protein LCMS."}, "[5]": {"system": "14-3-3 proteins in extracellular medium of A549 cells", "assay": "Detection of 14-3-3 proteins by BODIPY-modified peptides in extracellular medium of A549 cells", "assay_type": "binding", "conditions": "BODIPY-labeled derivatives; concentrated serum-free medium of A549 cells grown 24 h or 48 h", "protocol": "For experiments in medium, after growing the cells they were transferred to DMEM without FBS, followed by incubation for either 24 h or 48 h. After the incubation, 8.5 ml of the medium was filtered through a 0.2 µm filter, concentrated using a centrifugal concentrator (vivaspin, cutoff 8000–10,000 Da) to ~200 µl, and diluted to 8 ml using HEPES 50 mM pH = 7.5, 150 mM NaCl. This was followed by 2 additional rounds of dilution and concentration to ~200 µl. The samples were then diluted to 300 µl with IGEPAL added to 1% as well as protease inhibitors and PhosStop. 38 µl samples from the medium were then incubated with the peptides and analyzed as performed for the lysate, with 15 s exposure for fluorescence and 50 second exposure for chemiluminescence."}}, "data": [{"substance": "Peptide 3 (Ac-RSA-(pT)-(mC)-PSL-NH2)", "values": [{"measurement": "percent covalent labeling within 5 h", "setting": "[1]", "result": 60, "unit": "%"}, {"measurement": "percent covalent labeling after 48 h", "setting": "[2]", "result": 75, "unit": "%"}, {"measurement": "percent covalent labeling (overnight, 200 µM peptide)", "setting": "[3]", "result": 51, "unit": "%"}]}, {"substance": "Peptide 11 (Ac-RAH-(pT)-SPAS-(mC)-Q-NH2)", "values": [{"measurement": "percent free 14-3-3σ remaining within 2.5 h", "setting": "[1]", "result": "< 5", "unit": "%"}, {"measurement": "percent covalent labeling after 48 h", "setting": "[2]", "result": 100, "unit": "%"}, {"measurement": "percent covalent labeling (overnight, 200 µM peptide)", "setting": "[3]", "result": 57, "unit": "%"}]}, {"substance": "Peptide 8 (Ac-RAH-(pT)-(mC)-PASLQ-NH2)", "values": [{"measurement": "percent covalent labeling within 5 h", "setting": "[1]", "result": 80, "unit": "%"}, {"measurement": "percent covalent labeling after 48 h", "setting": "[2]", "result": 90, "unit": "%"}, {"measurement": "percent covalent labeling (overnight, 200 µM peptide)", "setting": "[3]", "result": 35, "unit": "%"}]}, {"substance": "Ac-RAH-(pT)-(mC)-PASLQ-NH2 [Peptide 8, Methacrylate phosphopeptide derived from YAP-1 (PDB 3MHR)]", "values": [{"measurement": "labeling of proteins in A549 lysates", "setting": "[4]", "result": "formed two main bands"}, {"measurement": "14-3-3σ full peptide adduct (degree of labeling)", "setting": "14-3-3σ; intact protein LC/MS, time 0 h", "result": 0}, {"measurement": "14-3-3σ full peptide adduct (degree of labeling)", "setting": "14-3-3σ; time 1 h (60 min)", "result": 34.14}, {"measurement": "14-3-3σ full peptide adduct (degree of labeling)", "setting": "14-3-3σ; time 2.5 h (150 min)", "result": 55.96}, {"measurement": "14-3-3σ full peptide adduct (degree of labeling)", "setting": "14-3-3σ; time 5 h (300 min)", "result": 74.24}, {"measurement": "14-3-3σ full peptide adduct (degree of labeling)", "setting": "14-3-3σ; time 24 h (1440 min)", "result": 86.25}, {"measurement": "degree of labeling of 14-3-3σ", "setting": "14-3-3σ; LC/MS, time 0 h", "result": 0}, {"measurement": "degree of labeling of 14-3-3σ", "setting": "14-3-3σ; time 35 min", "result": 53.08}, {"measurement": "degree of labeling of 14-3-3σ", "setting": "14-3-3σ; time 70 min", "result": 70.97}, {"measurement": "degree of labeling of 14-3-3σ", "setting": "14-3-3σ; time 1.75 h", "result": 80.85}, {"measurement": "degree of labeling of 14-3-3σ", "setting": "14-3-3σ; time 4 h", "result": 93.18}, {"measurement": "degree of labeling of 14-3-3σ", "setting": "14-3-3σ; time 8 h", "result": 91.76}, {"measurement": "increase of the rate of labeling at 37 °C", "setting": "14-3-3σ; 37 °C versus 25 °C", "result": "roughly 4 fold"}]}, {"substance": "Ac-RAH-(pT)-SPASL-X-NH2 [Peptide 12, reference compound]", "values": [{"measurement": "labeling of proteins in A549 lysates", "setting": "[4]", "result": "selectively labeled 14-3-3σ and generated a single fluorescent band"}, {"measurement": "detection of 14-3-3 proteins in extracellular medium", "setting": "[5]", "result": "14-3-3σ was not detected"}]}]}
